{"source": "patent US20250009676A1", "about": "“COMPOSITIONS AND METHODS FOR LEVODOPA DELIVERY” (PURDUE PHARMA L.P., priority 2021, published 2025)", "key": {"[1]": {"test": "Plasma pharmacokinetics of L-DOPA and dopamine after intranasal dosing", "conditions": "rat, 1.2 mg/kg"}, "[2]": {"test": "Brain levels of L-DOPA and dopamine after intranasal dosing", "conditions": "rat, 1.2 mg/kg, 2 hours post-dosing", "description": "All brain levels are reported after subtraction of basal levels."}, "[3]": {"conditions": "after intranasal L-DOPA administration, Nedorubov et al; cited from earlier work"}}, "note": "“Also recorded” adds a separate entry of the source.", "data": [{"smiles": "N[C@@H](Cc1ccc(O)c(O)c1)C(=O)O", "note": "[crystal L-DOPA, levodopa]", "values": [{"measurement": "dopamine plasma concentration, single animals with a quantifiable value", "setting": "[1]; GCPQ-L-DOPA: one rat, t=0.083 hours", "result": "25 to 29", "unit": "ng/mL"}, {"measurement": "dopamine plasma concentration", "setting": "[1]; limit of quantification 25 ng/ml, nearly all samples", "result": "below the limit of quantification"}, {"measurement": "maximum plasma concentration of L-DOPA", "setting": "[1]; plasma", "result": "53.5 ± 22.7", "unit": "ng/mL"}, {"measurement": "time of maximum L-DOPA plasma concentration (Tmax)", "setting": "[1]; plasma", "result": 15, "unit": "min"}, {"measurement": "dopamine levels in the brain above basal levels (in words)", "setting": "[2]", "result": "below the LOQ; also recorded: below the level of detection"}, {"measurement": "Cmax for L-DOPA in rat brain tissue", "setting": "[3]", "result": "16.94±1.52"}]}]}
